The values that follow come from patent US12454529B2, “Piperazine cyclic ureas” (SIRONAX LTD., priority 2020, dated 2025).

A word on the EC50: it is the concentration at which the effect is half-maximal.

The first test has as its system HT-29 cells. Description: HT-29 cell necrosis/necroptosis inhibition (TNF-α + SMAC mimetic + zVAD-FMK; CellTiter-Glo cell viability). It is filed as cell-based. The note with it: Homo sapiens, HT-29, 20 h, read-out: EC50 (Cell activity; Necrosis/Necroptosis Inhibitory Activity, Compounds 1-142). In outline:
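Necroptosis was driven by TNF-α 10 ng/ml plus SMAC mimetic 6 μM and zVAD-FMK 10 μM in serum-free medium, with compounds as a 10-point threefold titration. After 20 h at 37 °C, ATP-based luminescence was read; EC50 values are geometric means of duplicate curves.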
A general note: ATP-based viability assays read luminescence as a measure of living cells.
For `CC(=O)Nc1c(C)nn(-c2nc(N3CCN(C(=O)N4N=CC[C@H]4c4cc(F)cc(C#N)c4)CC3)ncc2F)c1C` [Compound 142, (S)—N-(1-(2-(4-(5-(3-cyano-5-fluorophenyl)-4,5-dihydro-1H-pyrazole-1-carbonyl)piperazin-1-yl)-5-fluoropyrimidin-4-yl)-3,5-dimethyl-1H-pyrazol-4-yl)acetamide], the 50% effective concentration (EC50) was 0.1 to 100 nM.

Staying with this test, now noted: Homo sapiens; HT-29 cells, TNF-α 10 ng/ml + SMAC mimetic 6 μM + zVAD-FMK 10 μM, 20 hours; geometric mean, 10 points in duplicate; read-out: EC50 (Cell activity; Necrosis/Necroptosis Inhibitory Activity, Compounds 1-142).
Take `Cc1cc(O)n(-c2nc(N3CCN(C(=O)N4N=CC[C@H]4c4cc(F)cc(C#N)c4)CC3)ncc2F)n1` [Compound 141, (S)-3-fluoro-5-(1-(4-(5-fluoro-4-(5-hydroxy-3-methyl-1H-pyrazol-1-yl)pyrimidin-2-yl)piperazine-1-carbonyl)-4,5-dihydro-1H-pyrazol-5-yl)benzonitrile]: the EC50 lay in the range of 0.1 to 100 nM. Still for that read-out and setting: to `Cc1cnn(C)c1-c1cc(N2CCN(C(=O)N3N=CC[C@H]3c3cc(F)cc(F)c3)CC2)ncc1F` [Compound 114, (S)-(5-(3,5-difluorophenyl)-4,5-dihydro-1H-pyrazol-1-yl)(4-(4-(1,4-dimethyl-1H-pyrazol-5-yl)-5-fluoropyridin-2-yl)piperazin-1-yl)methanone] belongs 0.1 to 100 nM. Same read-out and setting: to `N#Cc1cc(F)cc([C@@H]2CC=NN2C(=O)N2CCN(c3ncc(F)c(-n4cnc(C#N)n4)n3)CC2)c1` [Compound 125, (S)-1-(2-(4-(5-(3-cyano-5-fluorophenyl)-4,5-dihydro-1H-pyrazole-1-carbonyl)piperazin-1-yl)-5-fluoropyrimidin-4-yl)-1H-1,2,4-triazole-3-carbonitrile] belongs 0.1 to 100 nM; to `Cn1ncc(-c2nc(N3CCN(C(=O)N4N=CC[C@H]4c4cc(F)cc(C#N)c4)CC3)ncc2F)n1` [Compound 42], 0.1 to 100 nM. On the same count and under the same terms, to `O=C(N1CCN(c2nccc(-n3nnnc3C(F)(F)F)n2)CC1)N1N=CC[C@H]1c1cccc(F)c1` [Compound 103, (S)-(5-(3-fluorophenyl)-4,5-dihydro-1H-pyrazol-1-yl)(4-(4-(5-(trifluoromethyl)-1H-tetrazol-1-yl)pyrimidin-2-yl)piperazin-1-yl)methanone] belongs 0.1 to 100 nM. In the case of `NC(=O)c1c[nH]c(-c2ccnc(N3CCN(C(=O)N4N=CC[C@H]4c4cc(F)cc(F)c4)CC3)n2)c1` [Compound 10, (S)-5-(2-(4-(5-(3,5-difluorophenyl)-4,5-dihydro-1H-pyrazole-1-carbonyl)piperazin-1-yl)pyrimidin-4-yl)-1H-pyrrole-3-carboxamide], the EC50 was in the range of 0.1 to 100 nM. On to `CCn1c(C)nn(-c2nc(N3CCN(C(=O)N4N=CC[C@H]4c4cc(F)cc(C#N)c4)CC3)ncc2F)c1=O` [Compound 97, (S)-3-(1-(4-(4-(4-ethyl-3-methyl-5-oxo-4,5-dihydro-1H-1,2,4-triazol-1-yl)-5-fluoropyrimidin-2-yl)piperazine-1-carbonyl)-4,5-dihydro-1H-pyrazol-5-yl)-5-fluorobenzonitrile], for which the EC50 lay within 0.1 to 100 nM. Take `NC(=O)Cn1ccc(-c2nc(N3CCN(C(=O)N4N=CC[C@H]4c4ccccc4)CC3)ncc2F)n1` [Compound 77]: the EC50 lay within 0.1 to 100 nM. The same measure, in the same setting: to `N#Cc1cc(F)cc([C@@H]2CC=NN2C(=O)N2CCN(c3ncc(F)c(-n4cc(C(N)=O)cn4)n3)CC2)c1` [Compound 107, (S)-1-(2-(4-(5-(3-cyano-5-fluorophenyl)-4,5-dihydro-1H-pyrazole-1-carbonyl)piperazin-1-yl)-5-fluoropyrimidin-4-yl)-1H-pyrazole-4-carboxamide] belongs 0.1 to 100 nM.

Still in this test, the particulars now being: Homo sapiens; HT-29 cells, TNF-α 10 ng/ml + SMAC mimetic 6 μM + zVAD-FMK 10 μM, 20 hours; geometric mean, 10 points in duplicate; read-out: EC50 (Cell activity; Necrosis/Necroptosis Inhibitory Activity, Compounds 143-323).
With `Cn1cnc(-c2ccc(F)c(N3CCN(C(=O)N4N=CC[C@H]4c4cc(F)cc(C#N)c4)CC3)n2)n1` [Compound 177, (S)-3-fluoro-5-(1-(4-(3-fluoro-6-(1-methyl-1H-1,2,4-triazol-3-yl)pyridin-2-yl)piperazine-1-carbonyl)-4,5-dihydro-1H-pyrazol-5-yl)benzonitrile], the EC50 lay in the range of 100 to 1000 nM. The same measure, in the same setting: then `Cc1cnn(C)c1-c1ncc(F)c(N2CCN(C(=O)N3N=CC[C@H]3c3cc(F)cc(F)c3)CC2)n1` [Compound 301, (S)-(5-(3,5-difluorophenyl)-4,5-dihydro-1H-pyrazol-1-yl)(4-(2-(1,4-dimethyl-1H-pyrazol-5-yl)-5-fluoropyrimidin-4-yl)piperazin-1-yl)methanone], with 0.1 to 100 nM. The same measure, in the same setting: then `Cc1cnc([C@@H]2CC=NN2C(=O)N2CCN(c3ncc(F)c(-c4nc(C#N)nn4C)n3)CC2)s1` [Compound 151, (S)-5-(5-fluoro-2-(4-(5-(5-methylthiazol-2-yl)-4,5-dihydro-1H-pyrazole-1-carbonyl)piperazin-1-yl)pyrimidin-4-yl)-1-methyl-1H-1,2,4-triazole-3-carbonitrile], with 0.1 to 100 nM.

Take `Cc1nc(C)n(-c2nc(N3CCN(C(=O)N4N=CCC4c4csc(C)n4)CC3)ncc2Cl)n1` (centres unmarked) [Compound 224, (4-(5-chloro-4-(3,5-dimethyl-1H-1,2,4-triazol-1-yl)pyrimidin-2-yl)piperazin-1-yl)(5-(2-methylthiazol-4-yl)-4,5-dihydro-1H-pyrazol-1-yl)methanone]: the EC50 is 100 to 1000 nM. The same measure, in the same setting: then `Cc1nc(C)n(-c2nc(N3CCN(C(=O)N4N=CC[C@H]4c4cncc(F)c4)CC3)c(F)cc2F)n1` [Compound 234, (S)-(4-(6-(3,5-dimethyl-1H-1,2,4-triazol-1-yl)-3,5-difluoropyridin-2-yl)piperazin-1-yl)(5-(5-fluoropyridin-3-yl)-4,5-dihydro-1H-pyrazol-1-yl)methanone], with 0.1 to 100 nM; and `Cn1ncnc1-c1ccc(F)c(N2CCN(C(=O)N3N=CC[C@H]3c3cc(F)cc(F)c3)CC2)n1` [Compound 175, (S)-(5-(3,5-difluorophenyl)-4,5-dihydro-1H-pyrazol-1-yl)(4-(3-fluoro-6-(1-methyl-1H-1,2,4-triazol-5-yl)pyridin-2-yl)piperazin-1-yl)methanone], with 0.1 to 100 nM. As to `Cc1nnc(-c2nc(N3CCN(C(=O)N4N=CC[C@H]4c4cc(F)cc(C#N)c4)CC3)ccc2F)s1` [Compound 172, (S)-3-fluoro-5-(1-(4-(5-fluoro-6-(5-methyl-1,3,4-thiadiazol-2-yl)pyridin-2-yl)piperazine-1-carbonyl)-4,5-dihydro-1H-pyrazol-5-yl)benzonitrile], the EC50 is 0.1 to 100 nM. The same measure, in the same setting: then `Cc1ncn(-c2nc(N3CCN(C(=O)N4N=CC[C@H]4c4cccc(F)c4)CC3)ncc2F)n1` [Compound 310, (S)-(4-(5-fluoro-4-(3-methyl-1H-1,2,4-triazol-1-yl)pyrimidin-2-yl)piperazin-1-yl)(5-(3-fluorophenyl)-4,5-dihydro-1H-pyrazol-1-yl)methanone], with 0.1 to 100 nM; and `Cn1nc(CO)nc1-c1nc(N2CCN(C(=O)N3N=CCC3c3cc(F)cc(F)c3)CC2)ncc1F` (centres unmarked) [Compound 227, (5-(3,5-difluorophenyl)-4,5-dihydro-1H-pyrazol-1-yl)(4-(5-fluoro-4-(3-(hydroxymethyl)-1-methyl-1H-1,2,4-triazol-5-yl)pyrimidin-2-yl)piperazin-1-yl)methanone], with 0.1 to 100 nM; and `Cc1nn(-c2nc(N3CCN(C(=O)N4N=CC[C@H]4c4cc(F)cc(C#N)c4)CC3)ncc2F)c(C)c1NC(=O)C1CC1` [Compound 192, (S)—N-(1-(2-(4-(5-(3-cyano-5-fluorophenyl)-4,5-dihydro-1H-pyrazole-1-carbonyl)piperazin-1-yl)-5-fluoropyrimidin-4-yl)-3,5-dimethyl-1H-pyrazol-4-yl)cyclopropanecarboxamide], with 0.1 to 100 nM.

On to `Cc1csc(C2CC=NN2C(=O)N2CCN(c3nc(-c4c(C)cnn4C)ccc3F)CC2)n1` (centres unmarked) [Compound 299, (4-(6-(1,4-dimethyl-1H-pyrazol-5-yl)-3-fluoropyridin-2-yl)piperazinyl)(5-(4-methylthiazol-2-yl)-4,5-dihydro-1H-pyrazol-1-yl)methanone], for which the EC50 lay in the range of 0.1 to 100 nM.

Take `Cc1nc(C#N)nn1-c1nc(N2CCN(C(=O)N3N=CC[C@H]3c3cncc(F)c3)CC2)ncc1F` [Compound 255, (S)-1-(5-fluoro-2-(4-(5-(5-fluoropyridin-3-yl)-4,5-dihydro-1H-pyrazole-1-carbonyl)piperazin-1-yl)pyrimidin-4-yl)-5-methyl-1H-1,2,4-triazole-3-carbonitrile]: the EC50 was 0.1 to 100 nM. For `Cc1c(-c2nc(N3CCN(C(=O)N4N=CC[C@H]4c4cc(F)cc(F)c4)CC3)ncc2F)c(C(F)(F)F)nn1C` [Compound 198, (S)-(5-(3,5-difluorophenyl)-4,5-dihydro-1H-pyrazol-1-yl)(4-(4-(1,5-dimethyl-3-(trifluoromethyl)-1H-pyrazol-4-yl)-5-fluoropyrimidin-2-yl)piperazin-1-yl)methanone], the EC50 lay in the range of 0.1 to 100 nM. On to `Cn1cnnc1-c1nc(N2CCN(C(=O)N3N=CC[C@H]3c3cc(F)cc(C#N)c3)CC2)ncc1F` [Compound 197, (S)-3-fluoro-5-(1-(4-(5-fluoro-4-(4-methyl-4H-1,2,4-triazol-3-yl)pyrimidin-2-yl)piperazine-1-carbonyl)-4,5-dihydro-1H-pyrazol-5-yl)benzonitrile], for which the concentration for a half-maximal effect (EC50) was 1000 to 10000 nM. As for `Cc1cnn(C)c1-c1cc(N2CCN(C(=O)N3N=CC[C@H]3c3cc(F)cc(C#N)c3)CC2)c(F)cn1` [Compound 269, (S)-3-(1-(4-(2-(1,4-dimethyl-1H-pyrazol-5-yl)-5-fluoropyridin-4-yl)piperazine-1-carbonyl)-4,5-dihydro-1H-pyrazol-5-yl)-5-fluorobenzonitrile], the EC50 is 0.1 to 100 nM.

For `Cc1nc(C)n(-c2nc(N3CCN(C(=O)N4N=CC[C@H]4c4ncc(C)s4)CC3)ncc2F)n1` [Compound 241, (S)-(4-(4-(3,5-dimethyl-1H-1,2,4-triazol-1-yl)-5-fluoropyrimidin-2-yl)piperazin-1-yl)(5-(5-methylthiazol-2-yl)-4,5-dihydro-1H-pyrazol-1-yl)methanone], the EC50 lay within 0.1 to 100 nM.
